How the values were obtained:
[1] = tested on: CD8+ T cells; assay: In vitro T-cell priming (immunogenicity) with aAPCs loaded with peptide/MHC and anti-CD28, pMHC multimer readout; assay type: cell-based, human; conditions: for Wells positive [%]: in vitro immunogenicity, HLA-A*02 restricted peptides, positive wells among evaluable; for donors / wells: in vitro immunogenicity of HLA class I peptides; for donors: percentage of positive donors; for wells: percentage of positive wells
Description: In order to obtain information regarding the immunogenicity of the TUMAPs of the present invention, the inventors performed investigations using an in vitro T-cell priming assay based on repeated stimulations of CD8+ T cells with artificial antigen presenting cells (aAPCs) loaded with peptide/MHC complexes and anti-CD28 antibody.
In order to perform in vitro stimulations by artificial antigen presenting cells loaded with peptide-MHC complex (pMHC) and anti-CD28 antibody, the inventors first isolated CD8+ T cells from fresh HLA-A*02 leukapheresis products via positive selection using CD8 microbeads (Miltenyi Biotec, Bergisch-Gladbach, Germany) of healthy donors obtained from the University clinics Mannheim, Germany, after informed consent.
PBMCs and isolated CD8+ lymphocytes were incubated in T-cell medium (TCM) until use consisting of RPMI-Glutamax (Invitrogen, Karlsruhe, Germany) supplemented with 10% heat inactivated human AB serum (PAN-Biotech, Aidenbach, Germany), 100 U/ml Penicillin/100 μg/ml Streptomycin (Cambrex, Cologne, Germany), 1 mM sodium pyruvate (CC Pro, Oberdorla, Germany), 20 μg/ml Gentamycin (Cambrex). 2.5 ng/ml IL-7 (PromoCell, Heidelberg, Germany) and 10 U/ml IL-2 (Novartis Pharma, Nürnberg, Germany) were also added to the TCM at this step.
Generation of pMHC/anti-CD28 coated beads, T-cell stimulations and readout was performed in a highly defined in vitro system using four different pMHC molecules per stimulation condition and 8 different pMHC molecules per readout condition.
The purified co-stimulatory mouse IgG2a anti human CD28 Ab 9.3 (Jung et al., 1987) was chemically biotinylated using Sulfo-N-hydroxysuccinimidobiotin as recommended by the manufacturer (Perbio, Bonn, Germany). Beads used were 5.6 μm diameter streptavidin coated polystyrene particles (Bangs Laboratories, Illinois, USA).
pMHC used for positive and negative control stimulations were A*0201/MLA-001 (peptide […] (SEQ ID NO. 664) from modified Melan-A/MART-1) and A*0201/DDX5-001 ([…] from DDX5, SEQ ID NO. 665), respectively.
800.000 beads/200 μl were coated in 96-well plates in the presence of 4×12.5 ng different biotin-pMHC, washed and 600 ng biotin anti-CD28 were added subsequently in a volume of 200 μl. Stimulations were initiated in 96-well plates by co-incubating 1×10^6 CD8+ T cells with 2×10^5 washed coated beads in 200 μl TCM supplemented with 5 ng/ml IL-12 (PromoCell) for 3 days at 37° C. Half of the medium was then exchanged by fresh TCM supplemented with 80 U/ml IL-2 and incubating was continued for 4 days at 37° C. This stimulation cycle was performed for a total of three times. For the pMHC multimer readout using 8 different pMHC molecules per condition, a two-dimensional combinatorial coding approach was used as previously described (Andersen et al., 2012) with minor modifications encompassing coupling to 5 different fluorochromes. Finally, multimeric analyses were performed by staining the cells with Live/dead near IR dye (Invitrogen, Karlsruhe, Germany), CD8-FITC antibody clone SK1 (BD, Heidelberg, Germany) and fluorescent pMHC multimers. For analysis, a BD LSRII SORP cytometer equipped with appropriate lasers and filters was used. Peptide specific cells were calculated as percentage of total CD8+ cells. Evaluation of multimeric analysis was done using the FlowJo software (Tree Star, Oregon, USA). In vitro priming of specific multimer+CD8+ lymphocytes was detected by comparing to negative control stimulations.
Exemplary flow cytometry results after TUMAP-specific multimer staining for two peptides of the invention are shown in FIG. 3 together with corresponding negative controls.

[2] = biological target: HLA-A*02:01 (Homo sapiens, UniProt P04439, D140Y/D185E/D98H/E176V/E277Q/G131W/G231S/I119V/I121R/I166T/I218V/L300P/L318F/N151K/N90K/P208A/P217A/Q86G/Q94H/R138H/R169H/T345S); assay: MHC binding assay (UV-ligand exchange, β2m ELISA, peptide exchange yield); conditions: MHC class I binding score; binding to HLA-A*02:01 ranged by peptide exchange yield (UV-ligand exchange, β2m ELISA)
Outline: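 Binding is expressed as peptide exchange yield: stabilized MHC complexes were quantified by β2m ELISA, with a 450 nm TMB read-out on streptavidin-coated plates. Complexes came from UV-ligand exchange, where UV irradiation cleaves a photolabile peptide so the candidate peptide can load.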

Row | Substance | Wells positive [%] [1] | Peptide exchange [2] | donors [1] | wells [1]
1 | 40 (TLLVKVFSV; listed as Homo sapiens) [compound 40] | ″++″ (20%-49% = ++) | ″+++″ (≧50% = +++) | – | –
2 | 395 (ALALGGIAVV; listed as Homo sapiens) [compound 395] | ″+++″ (50%-69% = +++) | ″++++″ (≧75% = ++++) | – | –
3 | 499 (KIFDIDEAEEGV; listed as Homo sapiens) [compound 499] | ″+″ (<20% = +) | ″++″ (≧20% = ++) | – | –
4 | 19 (FMVDNEAIYDI; listed as Homo sapiens) [compound 19] | ″++″ (20%-49% = ++) | ″++++″ (≧75% = ++++) | – | –
5 | 460 (AMLEKNYKL; listed as Homo sapiens) [compound 460] | ″+″ (<20% = +) | ″++++″ (≧75% = ++++) | – | –
6 | 511 (FLDPYCSASV; listed as Homo sapiens) [compound 511] | ″+″ (<20% = +) | ″++″ (≧20% = ++) | – | –
7 | 463 (SLVESHLSDQLTL; listed as Homo sapiens) [compound 463] | ″++″ (20%-49% = ++) | ″+++″ (≧50% = +++) | – | –
8 | 56 (KLYEGIPVLL; listed as Homo sapiens) [compound 56] | ″+″ (<20% = +) | ″++++″ (≧75% = ++++) | – | –
9 | 143 (LLLDITPEI; listed as Homo sapiens) [compound 143] | ″+″ (<20% = +) | ″++++″ (≧75% = ++++) | – | –
10 | 79 (SLFIGEKAVLL; listed as Homo sapiens) [compound 79] | ″+″ (<20% = +) | ″+++″ (≧50% = +++) | – | –
11 | 319 (SLEPQIQPV; listed as Homo sapiens) [compound 319] | ″+″ (<20% = +) | ″++″ (≧20% = ++) | – | –
12 | 60 (SLTIDGIYYV; listed as Homo sapiens) [compound 60] | ″++++″ (> = 70% = ++++) | ″++++″ (≧75% = ++++) | – | –
13 | 36 (YVLEDLEVTV; listed as Homo sapiens) [compound 36] | ″+″ (<20% = +) | ″++″ (≧20% = ++) | – | –
14 | 48 (ALAELYEDEV; listed as Homo sapiens) [compound 48] | ″+″ (<20% = +) | ″+++″ (≧50% = +++) | – | –
15 | 17 (GLLPGDRLVSV; listed as Homo sapiens) [compound 17] | ″++″ (20%-49% = ++) | ″+++″ (≧50% = +++) | – | –
16 | 198 (KTINKVPTV; listed as Homo sapiens) [compound 198] | ″++″ (20%-49% = ++) | ″+++″ (≧50% = +++) | – | –
17 | 7 (SLVGLLLYL; listed as Homo sapiens) [compound 7] | ″++″ (20%-49% = ++) | ″++++″ (≧75% = ++++) | – | –
18 | 446 (QLIPALAKV; listed as Homo sapiens) [compound 446] | ″++″ (20%-49% = ++) | ″+++″ (≧50% = +++) | – | –
19 | 384 (ILFANPNIFV; listed as Homo sapiens) [compound 384] | ″+″ (<20% = +) | ″+++″ (≧50% = +++) | – | –
20 | 38 (FLLEDDIHVS; listed as Homo sapiens) [compound 38] | ″+″ (<20% = +) | ″+++″ (≧50% = +++) | – | –
21 | 242 (AIAYILQGV; listed as Homo sapiens) [compound 242] | ″+++″ (50%-69% = +++) | ″++″ (≧20% = ++) | – | –

Row | Substance | Wells positive [%] [1] | Peptide exchange [2] | donors [1] | wells [1]
22 | 150 (RLWEEGEELEL; listed as Homo sapiens) [compound 150] | ″+″ (<20% = +) | ″+++″ (≧50% = +++) | – | –
23 | 454 (KLPPPPPQA; listed as Homo sapiens) [compound 454] | ″++″ (20%-49% = ++) | ″+++″ (≧50% = +++) | – | –
24 | 61 (FLQGYQLHL; listed as Homo sapiens) [compound 61] | ″++″ (20%-49% = ++) | ″++++″ (≧75% = ++++) | – | –
25 | 283 (ALYIGDGYVIHLA; listed as Homo sapiens) [compound 283] | – | ″+++″ (≧50% = +++) | +++ (50%-69% = +++) | + (<20% = +)
26 | 118 (KLIDNNINV; listed as Homo sapiens) [compound 118] | ″+″ (<20% = +) | ″+++″ (≧50% = +++) | – | –
27 | 108 (ALFPGVALLLA; listed as Homo sapiens) [compound 108] | ″++″ (20%-49% = ++) | ″++++″ (≧75% = ++++) | – | –
28 | 489 (KMWEELPEVV; listed as Homo sapiens) [compound 489] | ″+″ (<20% = +) | ″+++″ (≧50% = +++) | – | –
29 | 113 (GLLPTPLFGV; listed as Homo sapiens) [compound 113] | ″+″ (<20% = +) | ″+++″ (≧50% = +++) | – | –
30 | 443 (GLWEIENNPTV; listed as Homo sapiens) [compound 443] | ″+″ (<20% = +) | ″+++″ (≧50% = +++) | – | –
31 | 152 (ILFEDIFDV; listed as Homo sapiens) [compound 152] | ″++″ (20%-49% = ++) | ″+++″ (≧50% = +++) | – | –
32 | 166 (YLNHLEPPV; listed as Homo sapiens) [compound 166] | ″++++″ (> = 70% = ++++) | ″+++″ (≧50% = +++) | – | –
33 | 199 (ALQDVPLSSV; listed as Homo sapiens) [compound 199] | ″+″ (<20% = +) | ″+++″ (≧50% = +++) | – | –
34 | 247 (VLLPNDLLEKV; listed as Homo sapiens) [compound 247] | ″+″ (<20% = +) | ″+++″ (≧50% = +++) | – | –
35 | 663 (KIQEMQHFL; listed as Homo sapiens) [compound 663] | – | – | +++ (50%-69% = +++) | + (<20% = +)
36 | 518 (KLNAEVACV; listed as Homo sapiens) [compound 518] | ″++″ (20%-49% = ++) | ″+++″ (≧50% = +++) | – | –
37 | 8 (FTLGNVVGMYL; listed as Homo sapiens) [compound 8] | ″+″ (<20% = +) | ″++++″ (≧75% = ++++) | – | –
38 | 5 (HLTEVYPEL; listed as Homo sapiens) [compound 5] | ″+++″ (50%-69% = +++) | ″+++″ (≧50% = +++) | – | –
39 | 3 (SLASKLTTL; listed as Homo sapiens) [compound 3] | ″+″ (<20% = +) | ″++++″ (≧75% = ++++) | – | –
40 | 49 (YLPAVFEEV; listed as Homo sapiens) [compound 49] | ″++″ (20%-49% = ++) | ″+++″ (≧50% = +++) | – | –
41 | 157 (SLNDEVPEV; listed as Homo sapiens) [compound 157] | ″+++″ (50%-69% = +++) | ″++″ (≧20% = ++) | – | –
42 | 191 (LLQEGQALEYV; listed as Homo sapiens) [compound 191] | ″+++″ (50%-69% = +++) | ″++″ (≧20% = ++) | – | –
